{"source": "patent US20250250230A1", "about": "“HETEROCYCLIC COMPOUND” (TAKEDA PHARMACEUTICAL COMPANY LIMITED, priority 2022, published 2025)"}
{"biological_target": "T1, human orexin type 2 receptor (Homo sapiens, UniProt O43614)", "T1 construct": "expressed in transfected cells", "T1 sequence (O43614 1-444)": "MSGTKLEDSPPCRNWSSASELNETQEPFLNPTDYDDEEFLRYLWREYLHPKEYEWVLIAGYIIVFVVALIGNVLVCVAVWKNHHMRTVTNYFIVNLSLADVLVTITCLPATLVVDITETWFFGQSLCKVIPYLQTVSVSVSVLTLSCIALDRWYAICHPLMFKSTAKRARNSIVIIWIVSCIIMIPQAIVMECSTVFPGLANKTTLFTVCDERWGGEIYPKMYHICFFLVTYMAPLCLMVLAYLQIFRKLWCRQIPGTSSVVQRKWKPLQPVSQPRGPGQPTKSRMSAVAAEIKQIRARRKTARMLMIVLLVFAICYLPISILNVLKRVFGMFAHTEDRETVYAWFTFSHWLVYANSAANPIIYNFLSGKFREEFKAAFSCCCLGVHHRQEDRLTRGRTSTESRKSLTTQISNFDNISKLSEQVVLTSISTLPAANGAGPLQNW", "assay": "Measurement of orexin type 2 receptor agonist activity (calcium fluorescence, Fluo-4 AM, FDSS)", "format": "cell-based", "details": "test compound 3 μM; CHO cells expressing human OX2 receptor; DMSO = 0%, orexin A (human) = 100%", "outline": "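CHO-K1 cells stably expressing human OX2R were loaded with Fluo-4 AM (30 min 37 °C, 30 min RT) in HEPES-buffered HBSS with 0.1% BSA and probenecid. Calcium fluorescence was followed on FDSS for 2 min after compound addition; activity normalised to DMSO (0%) and 10 nM orexin A (100%).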", "units": {"OX2R agonist activity (3 μM, %)": "%"}}
{"smiles": "CS(=O)(=O)N[C@@H]1CN(C(=O)[C@@H]2C[C@H]2c2ccccc2-c2c(F)cccc2F)CC[C@@H]1O", "note": "[Example 270, N-{(3R,4S)-1-[(1R,2R)-2-(2′,6′-difluoro[1,1′-biphenyl]-2-yl)cyclopropane-1-carbonyl]-4-hydroxypiperidin-3-yl}methanesulfonamide]", "OX2R agonist activity (3 μM, %)": 64}
{"smiles": "CS(=O)(=O)N[C@@H]1CN(C(=O)[C@@H]2C[C@H]2c2ccccc2-c2c(F)cccc2F)CC(F)(F)C1", "note": "[Example 271, N-{(3S)-1-[(1R,2R)-2-(2′,6′-difluoro[1,1′-biphenyl]-2-yl)cyclopropane-1-carbonyl]-5,5-difluoropiperidin-3-yl}methanesulfonamide]", "OX2R agonist activity (3 μM, %)": 87}
{"smiles": "CS(=O)(=O)NC12CC1CN(C(=O)C1CC1c1ccccc1-c1c(F)cccc1F)C2", "note": "(stereo not drawn) [Example 272, N-{3-[2-(2′,6′-difluoro[1,1′-biphenyl]-2-yl)cyclopropane-1-carbonyl]-3-azabicyclo[3.1.0]hexan-1-yl}methanesulfonamide optical isomer]", "OX2R agonist activity (3 μM, %)": 99}
{"smiles": "CS(=O)(=O)NC12CCC1CN(C(=O)C1CC1c1ccccc1-c1c(F)cccc1F)C2", "note": "(stereo not drawn) [Example 273, N-{3-[2-(2′,6′-difluoro[1,1′-biphenyl]-2-yl)cyclopropane-1-carbonyl]-3-azabicyclo[3.1.0]hexan-1-yl}methanesulfonamide optical isomer]", "OX2R agonist activity (3 μM, %)": 98}
{"smiles": "CC1(C(=O)N2CCCC[C@H](NS(C)(=O)=O)C2)CC1c1ccccc1-c1c(F)cccc1F", "note": "(stereo partly drawn) [Example 274, N-{(3S)-1-[(1R,2S)-2-(2′,6′-difluoro[1,1′-biphenyl]-2-yl)-1-methylcyclopropane-1-carbonyl]azepan-3-yl}methanesulfonamide, or N-{(3S)-1-[(1S,2R)-2-(2′,6′-difluoro[1,1′-biphenyl]-2-yl)-1-methylcyclopropane-1-carbonyl]azepan-3-yl}methanesulfonamide]", "OX2R agonist activity (3 μM, %)": 86}
{"smiles": "CS(=O)(=O)NCC1CCN1C(=O)C1CC1c1ccccc1-c1c(F)cccc1F", "note": "(stereo not drawn) [Example 276, N-({1-[2-(2′,6′-difluoro[1,1′-biphenyl]-2-yl)cyclopropane-1-carbonyl]azetidin-2-yl}methyl)methylsulfonamide optical isomer]", "OX2R agonist activity (3 μM, %)": 101}
{"smiles": "CS(=O)(=O)N[C@@H]1CN(C(=O)[C@@H]2C[C@H]2c2ccccc2-c2c(F)cccc2F)C[C@H]1F", "note": "[Example 279, N-{(3R,4R)-1-[(1R,2R)-2-(2′,6′-difluoro[1,1′-biphenyl]-2-yl)cyclopropane-1-carbonyl]-4-fluoropyrrolidin-3-yl}methanesulfonamide]", "OX2R agonist activity (3 μM, %)": 87}
{"smiles": "C[C@H]1C[C@H](NS(=O)(=O)N(C)C)CN1C(=O)[C@@H]1C[C@H]1c1ccccc1-c1c(F)cccc1F", "note": "[Example 281, N′-{(3S,5S)-1-[(1R,2R)-2-(2′,6′-difluoro[1,1′-biphenyl]-2-yl)cyclopropane-1-carbonyl]-5-methylpyrrolidin-3-yl}-N,N-dimethylsulfuric diamide]", "OX2R agonist activity (3 μM, %)": 96}
{"smiles": "CS(=O)(=O)NC[C@H]1CN(C(=O)[C@@H]2C[C@H]2c2ccccc2-c2c(F)cccc2F)CCO1", "note": "[Example 282, N-({(2R)-4-[(1R,2R)-2-(2′,6′-difluoro[1,1′-biphenyl]-2-yl)cyclopropane-1-carbonyl]morpholin-2-yl}methyl)methanesulfonamide]", "OX2R agonist activity (3 μM, %)": 87}
{"smiles": "CS(=O)(=O)NC[C@@H]1CN(C(=O)[C@@H]2C[C@H]2c2ccccc2-c2c(F)cccc2F)CCO1", "note": "[Example 283, N-({(2S)-4-[(1R,2R)-2-(2′,6′-difluoro[1,1′-biphenyl]-2-yl)cyclopropane-1-carbonyl]morpholin-2-yl}methyl)methanesulfonamide]", "OX2R agonist activity (3 μM, %)": 100}
